Experimental data taken from patent publication US20240270771A1, “Compound containing phosphate group, pharmaceutical composition containing same, preparation method therefor and use thereof” (SHANGHAI RAISING PHARMACEUTICAL CO., LTD., priority 2021, published 2024).

Experiments:
Aβ40 = Aβ40 content in culture supernatant of HEK293APP/sw overexpressing cells (ELISA kit); assay type: cell-based; conditions: compound 400 μM, 24 hours, adjusted by total protein concentration, blank control 127.81
Experimental: (§1) BCA Protein Assay Kit was purchased from Beyotime, Aβ40 and Aβ42 detection kits were purchased from Wako, and cell culture related reagents were purchased from Gibco.
(§2) HEK293APP/sw overexpressing cells were cultured in DMEM medium containing 10% FBS, 100 μg/mL G418 (Geneticin) and 1×Penicillin-Streptomycin in 48-well plates. A 4 mM compound stock solution (prepared by dissolving the compound in DMEM culture medium) was filtered through a 0.22 μm sterile filter and stored at −20° C. for subsequent use. At 70% cell density, 40 μL of the compound test solution was added to each well to reach a final concentration of 400 μM, and the plate was incubated for 24 hours.
(§3) The supernatant of the culture medium was collected. The BCA reagent was added to a part of the supernatant, after incubating at room temperature for 30 min, the absorbance value (i.e., OD value) of each well was determined by a microplate reader at 570 nm. The total protein concentration was calculated according to a protein standard curve. Meanwhile, the other part of the supernatant (100 μL) was added to a coated 96-well plate and incubated overnight at 4° C., after the solution was removed and the reagents were washed, HRP (horseradish peroxidase)-labeled antibody was added and incubated at 4° C. for 2 hours. After the reagents were removed and washed, a TMB chromogenic solution was added, the plate was incubated at room temperature for 30 min, and then a stop solution was added to stop the reaction. The absorbance value (i.e., OD value) of each well was measured by a microplate reader at 450 nm. The concentrations of Aβ40 and Aβ42 were calculated according to the standard curves of Aβ40 and Aβ42, respectively. In the end, the concentrations of Aβ40 and Aβ42 were adjusted by the total protein concentration, so as to obtain the final concentration.

Aβ42 = Aβ42 content in culture supernatant of HEK293APP/sw overexpressing cells (ELISA kit); assay type: cell-based; conditions: compound 400 μM, 24 hours, adjusted by total protein concentration, blank control 11.08
Experimental: as §1, §2, §3

APP/PSi 2×Tg mice = assay: Water maze behavior test; assay type: in vivo; conditions: 200 mg/kg oral gavage once a day, 8 weeks; for The number of crossing the platform: test day 6, model group 0.9 ± 0.6; for Time in the target quadrant: test day 6, model group 12.8 ± 2.9, in s
Description: Rodents in water have a strong incentive to escape from the water environment, and can escape from the water environment in the fastest and most direct way. The process of learning to escape from the water environment reflects the learning ability of the animals. Spatial positioning according to the surrounding environment and purposefully swimming to a safe place in the water (such as a platform) can reflect the spatial learning and memory ability of the animals.
The test animals were APP/PSi 2×Tg mice (C57BL/6 wild-type mice as the blank control). Mice of 6-8 months old, weighing 20-40 g, were purchased from The Jackson laboratory.
APP/PSi mice are APP/PSi di-transgenic Alzheimer's disease (2×Tg-AD) model mice, and the appearance of deposition of Aβ is earlier than the pathological changes of tau protein for several months, which can more truly simulate the clinical process and pathological changes of Alzheimer's disease.
Preparation of 0.7% CMC-Na: 0.7 g CMC-Na was added with a proper amount of water, heated for dissolution, left for cooling to room temperature, diluted to 100 mL, and stored at 4° C.
Preparation of BTMP: 100 mg of BTMP was added to 10 mL of 0.7% CMC-Na to prepare a 10 mg/mL suspension for use.
Preparation of test compound and comparative compound 1: 100 mg of the compound to be tested was weighted and added to 10 mL of 0.7% CMC-Na to prepare a 10 mg/mL suspension for use.
The laboratory mice were randomly divided into groups (9 or 10 mice per group). Mice in each group were administrated at a dosage of 0.2 mL/10 g body weight by oral gavage once a day for eight weeks.
The mice in the blank control group, model group and test group were orally administrated for 8 consecutive weeks according to the above administration dosage/specification. The water maze training and test were started in the last week of administration. The water maze training and test lasted for six days, with a training period of five days and a testing period of one day. In addition, during the training and testing period of water maze (6 days in total), the indoor conditions such as lighting etc. were kept consistent, the room was kept quiet, and the interference from the environment and personnel was excluded.
2.1. Preparation before the test: a proper amount of water was put into the water maze pool with the water temperature being kept at 22±3° C. The platform was placed in a fixed position (target quadrant) and 1 cm below the water surface, and titanium dioxide was added until the water became white, so that the platform could not be seen clearly.
2.2. Training period (days 1 to 5): on each day, before the first quadrant training, each mouse was placed on the platform for 15 s (to increase the mice's sense of security on the platform), and then the mouse was put into the pool (with its head facing the pool wall) from the quadrant where the platform located, and the swimming time was set as 60 s. If the mouse found the platform within 60 s and stayed for 5 s, it was regarded as the platform being found successfully. If the mouse could not find the platform, then the time was recorded as 60 s. The mouse was guided to the platform and stayed for 20 s, the mouse was then taken out, and the quadrant training for this mouse was ended.
After the first quadrant training, the mouse was trained in the remaining three quadrants sequentially, where it is not necessary to place the mouse on the platform for 15 s before training. The training of each mouse in every two quadrants was conducted at an interval of 10-15 minute. In this way, the training was performed continuously for 5 days.
2.3. Testing period (day 6): 24 hours after the last training, the platform was removed, and the mouse was dropped at the position opposite to the quadrant where the platform previously located (i.e., the position furthest away from the platform). […]

[1] = Pharmacokinetic study, brain distribution test (TM in brain and whole blood); assay type: in vivo, SD rats; conditions: single gavage to rats, trapezoidal method, calculated after deducting the concentration at time zero
Experimental: The SD rats used in this test were purchased from Zhejiang Charles rive Laboratory Animal Co., Ltd. Both male and female rats of SPF grade weighting about 250 g were used.
Preparation of the test article: a proper amount of test article was weighed and ground as fine powder in a mortar. A certain amount of the vehicle was added to a proper container, and then the ground test article was added to the container under magnetic stirring. The mixture was stirred until the appearance is uniform.
The male SD rats were divided into three groups (16 rats in each group) (4 animals were sacrificed at 4 time points). […] The animals were sacrificed at 5 min, 1 h, 3 h, and 9 h after the administration. The brain was taken out immediately after sacrifice, rinsed with ice-cold water and rinsed. 50 mg of the brain tissue was weighed, added to 0.45 mL of 100 mM dipotassium hydrogen phosphate buffer (pH=5.0) and homogenized. Blood samples were taken simultaneously and anticoagulated with EDTA. After collection, blood samples were placed on ice. 150 μL of whole blood was taken and 150 μL of 5.2% perchloric acid was added to determine TM. Another 4 animals were gavage administered with normal saline for the determination of endogenous TM concentration. All samples were frozen and stored in a −80° C. refrigerator.
The concentrations of TM and TDP in the samples were determined by HPLC-FLD.
The non-compartment model of the DAS software was used to calculate the pharmacokinetic parameters of TM and TDP in blood of rats after administration. The concentration of TM in the brain tissue after the drug administration in rats was measured, and the mean value and standard deviation were calculated. The area under the drug-time curve AUC was calculated using the trapezoidal method.

[2] = test day 6, model group 45.0 ± 8.8, 200 mg/kg

SMILES | The content of Aβ40 (Aβ40) [pmol/L] | The content of Aβ42 (Aβ42) [pmol/L] | The number of crossing the platform (APP/PSi 2×Tg mice) | Time in the target quadrant (APP/PSi 2×Tg mice) | Latency period (APP/PSi 2×Tg mice; [2]) [s] | AUC of TM in the brain [1] [ng·h/g] | Latency period (APP/PSi 2×Tg mice; test day 6, model group 45.0 ± 8.8) [s]
C/C(=C(\CCOP(=O)(O)O)SC(=O)c1ccoc1)N(C=O)Cc1cnc(C)nc1N [Compound 15, (Z)—S-(2-(N-((4-amino-2-methylpyrimidin-5-yl)methyl)formamido)-5-(phosphonooxy)pent-2-en-3-yl) furan-3-carbothioate] | 37.88 | 10.52 | – | – | – | – | –
C/C(=C(\CCOP(=O)(O)O)SC(=O)c1ccccc1)N(C=O)Cc1cnc(C)nc1N [BTMP, benfotiamine, reference compound] | – | – | 2.1 ± 0.6 | 18.0 ± 3.5 | 27.3 ± 1.6 | 739.9 | –
C/C(=C(\CCOP(=O)(O)O)SC(=O)c1cc2ccccc2o1)N(C=O)Cc1cnc(C)nc1N [Compound 13, (Z)—S-(2-(N-((4-amino-2-methylpyrimidin-5-yl)methyl)formamido)-5-(phosphonooxy)pent-2-en-3-yl) benzofuran-2-carbothioate] | 43.76 | 7.21 | – | – | – | – | –
COc1ccc2oc(C(=O)S/C(CCOP(=O)(O)O)=C(/C)N(C=O)Cc3cnc(C)nc3N)cc2c1 [Compound 8, (Z)—S-(2-(N-((4-amino-2-methylpyrimidin-5-yl)methyl)formamido)-5-(phosphonooxy)pent-2-en-3-yl) 5-methoxybenzofuran-2-carbothioate] | 60.96 | 2.31 | – | – | – | – | –
C/C(=C(\CCOP(=O)(O)O)SC(=O)C(C)C)N(C=O)Cc1cnc(C)nc1N [Comparative compound 1, reference compound] | – | – | 2.1 ± 0.6 | 18.1 ± 2.8 | 27.0 ± 1.3 | – | –
C/C(=C(\CCOP(=O)(O)O)SC(=O)c1ccc(Cl)s1)N(C=O)Cc1cnc(C)nc1N [Compound 7, (Z)—S-(2-(N-((4-amino-2-methylpyrimidin-5-yl)methyl)formamido)-5-(phosphonooxy)pent-2-en-3-yl) 5-chlorothiophene-2-carbothioate] | 35.93 | 5.03 | – | – | – | – | –
CCCCC(CC)C(=O)S/C(CCOP(=O)(O)O)=C(/C)N(C=O)Cc1cnc(C)nc1N (stereo not drawn) [Comparative compound 2, reference compound] | – | – | – | – | – | 555.9 | –
C/C(=C(\CCOP(=O)(O)O)SC(=O)OCCc1ccccc1)N(C=O)Cc1cnc(C)nc1N [Compound 5, (Z)—S-(2-(N-((4-amino-2-methylpyrimidin-5-yl)methyl)formamido)-5-(phosphonooxy)pent-2-en-3-yl) O-phenethyl carbonothioate] | 48.94 | 4.92 | 2.2 ± 0.7 | 17.7 ± 2.6 | – | – | 25.0 ± 2.2
